US11820729B2 (Johnson & Johnson Consumer Inc., priority 2014, dated 2023)

Columns and labels:
[1] = tested on: 16-hour salivary biofilm on pellicle coated hydroxyapatite pegs; experiment: Prevention assay: prevention of bacterial attachment to pellicle coated hydroxyapatite pegs, ATP bioluminescence; type: cell-based; conditions: for prevention of bacterial attachment in alcohol free full formulations: Table 15 formulations, water as the only solvent; for prevention of bacterial attachment in alcohol-free full formulations: Table 17 formulations, water and propylene glycol as solvents; for ability to prevent bacterial attachment / preventing bacterial attachment the best: simple solution solvent base formulas (Table 11)
Description: The formulations in Examples 2-4, 6, 8 and 9 were prepared and test for prevention of bacterial attachment using the prevention assay. In this assay hydroxyapatite-coated polystyrene peg plate (96 pegs, N=8 per group) was exposed to saliva for one minute to form a pellicle at a temperature of 35 C. Then, for each formulation, eight pegs (N=8) were pre-treated for ten minutes with the formulation using an orbital shaker set to 500 RPM at room temperature. As a negative control, eight pegs (N=8) were pre-treated for ten minutes with sterile water. Next, a 16-hour salivary biofilm was grown on these polystyrene peg plates at a temperature of 35 C.
After all treatments were complete, the biofilm from each peg was neutralized and rinsed. The biofilm was harvested via sonication using a Q-Sonica Q700 Ultrasonic Liquid Processor with 431MP4-00 microplate horn Damper and 0.5:1 reverse gain booster (Q-Sonica, Newtown, Conn.). Using a Celsis Rapid Detection RapiScreen kit (Celsis International PLC, Chicago, Ill.), the bacteria were lysed with Celsis Luminex and then the adenosine triphosphate (ATP) from the lysed bacteria was measured using the bioluminescence marker Celcis Luminate and a Centro LB 960 Microplate Luminometer supplied by Berthold Technologies (Wildbad, Germany). Data were reported in log RLU (relative light units) where decreasing log RLUs indicated fewer viable bacteria remained on the biofilm substrate. The log RLUs for the prevention assay are shown on Tables 2, 4, 6, 10, 14, and 16.

S. mutans biofilm = experiment: S. mutans single species kill assay (in-vitro biofilm model); type: cell-based; conditions: simple solution formulas (Table 13), 30 second treatment
Description: The formulations listed in Example 7 were prepared and tested using an in-vitro single species S. mutans biofilm model. A 24-hour S. mutans biofilm is grown on a polystyrene peg plate (96 pegs, N=6 per test group). The pegs were subsequently treated for thirty seconds with each of formulations H and I, as well as positive and negative controls. The treatment is applied as a single thirty (30) second treatment. The positive control is a commercially available essential oil mouth rinse. The negative control is sterile water. After treatment the biofilm is neutralized and rinsed. The biofilm is harvested via sonication using a Misonix Ultrasonic Liquid Processor (Farmingdale, N.Y.). Using a Celsis Rapid Detection RapiScreen kit (Celsis International PLC, Chicago), the bacteria are lysed with Celsis Luminex and then the adenosine triphosphate (ATP) from the lysed bacteria is measured using the bioluminescence marker LB960 Microplate Luminometer supplied by Berthold (Wildbad, Germany). Data are reported in log RLU (relative light units) where decreasing log RLUs indicates fewer viable bacteria remaining on the biofilm substrate.

[2] = HPLC quantification of compound remaining after storage at 50° C.; type: physicochemical; conditions: storage at 50° C. for 4 and 8 weeks (Table 13 formulas)
Description: Briefly, formulations containing either LAE or any of the 26 compounds and standards are diluted into a solution of 50% acetonitrile and 50% water. They are evaluated on an Agilent HPLC using a Zorbax ion exchange column. In the method, 10 uL of the sample is withdrawn and ran through the HPLC with a 40% potassium phosphate (molarity at pH 3.0) 60% acetonitrile mobile phase. […] The molecule peak is auto integrated using the Online Agilent HPLC software. Comparisons are made to the standard to identify the % of compound remaining following storage.

Molecule | prevention of bacterial attachment in alcohol free full formulations [1] | prevention of bacterial attachment in alcohol-free full formulations [1] | ability to prevent bacterial attachment [1] | preventing bacterial attachment the best [1] | log reduction in S. mutans (S. mutans biofilm) | structural stability via HPLC in simple solution formulations [2]
CCCCCCCC(=O)NC(CCCNC(=N)N)C(=O)NC (centres unmarked) [Compound 1, [amino({[4-(methylcarbamoyl)-4-octanamidobutyl]amino})methylidene]azanium] | Prevent Bacterial Attachment | Prevent Bacterial Attachment | have the ability to prevent bacterial attachment | preventing bacterial attachment the best | do not Result in More than a One Log Reduction in S. mutans | –
CCCCCCCC(=O)NC(CCCNC(=N)N)C(=O)NCC (centres unmarked) [Compound 2, [amino({[4-(ethylcarbamoyl)-4-octanamidobutyl]amino})methylidene]azanium] | Prevent Bacterial Attachment | Prevent Bacterial Attachment | have the ability to prevent bacterial attachment | preventing bacterial attachment the best | do not Result in More than a One Log Reduction in S. mutans | significant decrease in peak area
CCCCCCCC(=O)NC(CCCNC(=N)N)C(=O)NCCCCCC (centres unmarked) [Compound 3, [amino({[4-(hexylcarbamoyl)-4-octanamidobutyl]amino})methylidene]azanium] | Prevent Bacterial Attachment | Prevent Bacterial Attachment | have the ability to prevent bacterial attachment | preventing bacterial attachment the best | do not Result in More than a One Log Reduction in S. mutans | –
CCCCCCCCCCCC(=O)NC(CCCNC(=N)N)C(=O)NC (centres unmarked) [Compound 6] | Prevent Bacterial Attachment | Prevent Bacterial Attachment | have the ability to prevent bacterial attachment | preventing bacterial attachment the best | do not Result in More than a One Log Reduction in S. mutans | –
CCCCCCCCCCCCCCCCCC(=O)NC(CCCNC(=N)N)C(=O)NC (centres unmarked) [Compound 7] | – | – | – | – | do not Result in More than a One Log Reduction in S. mutans | –
CCCCCCCCCCCC(=O)NC(CCCCN)C(=O)NCC (centres unmarked) [Compound 11, N-[5-amino-1-(ethylcarbamoyl)pentyl]dodecanamide] | Prevent Bacterial Attachment | Prevent Bacterial Attachment | have the ability to prevent bacterial attachment | – | do not Result in More than a One Log Reduction in S. mutans | –
CCCCCCCCCCCC(=O)NC(CCCN)C(=O)NCC (centres unmarked) [Compound 12, N-[4-amino-1-(ethylcarbamoyl)butyl]dodecanamide] | Prevent Bacterial Attachment | Prevent Bacterial Attachment | have the ability to prevent bacterial attachment | preventing bacterial attachment the best | do not Result in More than a One Log Reduction in S. mutans | –
CCCCCCCCCCCC(=O)NC(COP(=O)(O)O)C(=O)NCC (centres unmarked) [Compound 16, 2-dodecanamido-3-(ethylamino)-3-oxopropyl dihydrogen phosphate] | – | – | have the ability to prevent bacterial attachment | – | – | –
CCCCCCCCCCCC(=O)NC(CCCN)C(=O)NCCCCCC (centres unmarked) [Compound 17, N-(5-amino-1-(hexylamino)-1-oxopentan-2-yl)dodecanamide] | – | – | have the ability to prevent bacterial attachment | preventing bacterial attachment the best | – | –
CCCCCCCCCCCNC(=O)C(CCCN)NC(=O)CCCCCCC (centres unmarked) [Compound 18, N-(5-amino-1-oxo-1-(undecylamino)pentan-2-yl)octanamide] | – | – | have the ability to prevent bacterial attachment | preventing bacterial attachment the best | – | –
CCCCCCCCNC(=O)C(CCCN)NC(=O)CCCCCCC (centres unmarked) [Compound 19, N-(5-amino-1-(octylamino)-1-oxopentan-2-yl)octanamide] | – | – | have the ability to prevent bacterial attachment | preventing bacterial attachment the best | – | –
CCCCCCCCCCCCCC(=O)NC(CCCNC(=N)N)C(=O)NCC (centres unmarked) [Compound 20, N-(1-(ethylamino)-5-guanidino-1-oxopentan-2-yl)tetradecanamide] | – | – | have the ability to prevent bacterial attachment | – | – | –
CCCCCCCCNC(=O)C(CCCNC(=N)N)NC(=O)CCCCCCC (centres unmarked) [Compound 21, N-(5-guanidino-1-(octylamino)-1-oxopentan-2-yl)octanamide] | – | – | have the ability to prevent bacterial attachment | preventing bacterial attachment the best | – | –
CCCCCCCCCCCC(=O)NC(CCCNC(=N)N)C(=O)NCCCCCCCC (centres unmarked) [Compound 22, N-(5-guanidino-1-(octylamino)-1-oxopentan-2-yl)dodecanamide] | – | – | have the ability to prevent bacterial attachment | preventing bacterial attachment the best | – | –
CCCCCCCCCCCC(=O)NC(CCCNC(=N)N)C(=O)NCCCCCCCCCC (centres unmarked) [Compound 23, N-(1-(decylamino)-5-guanidino-1-oxopentan-2-yl)dodecanamide] | – | – | have the ability to prevent bacterial attachment | – | – | –
CCCCCCCCCC(=O)NC(CCCNC(=N)N)C(=O)NCC (centres unmarked) [Compound 24, N-(1-(ethylamino)-5-guanidino-1-oxopentan-2-yl)decanamide] | – | – | have the ability to prevent bacterial attachment | – | – | –
CCCCCCCCCCCNC(=O)C(CCCNC(=N)N)NC(=O)CCCCCCCCCCC (centres unmarked) [Compound 25, N-(5-guanidino-1-oxo-1-(undecylamino)pentan-2-yl)dodecanamide] | – | – | have the ability to prevent bacterial attachment | – | – | –
CCCCCCCCCCCNC(=O)C(CCCNC(=N)N)NC(=O)CCCCCCC (centres unmarked) [Compound 26, N-(5-guanidino-1-oxo-1-(undecylamino)pentan-2-yl)octanamide] | – | – | have the ability to prevent bacterial attachment | preventing bacterial attachment the best | – | –
[amino({[4-dodecanamido-4-(methylcarbamoyl)butyl]amino})methylidene]azanium [Compound 4] | – | – | have the ability to prevent bacterial attachment | – | do not Result in More than a One Log Reduction in S. mutans | –
